Key:
E. coli BW25113-ΔacrB = assay: AcrAB-TolC efflux deficiency screen, relative MIC; assay type: cell-based, Escherichia coli; conditions: ΔacrB vs wild-type
Procedure: (§1) Fig. 6 The impact of AcrAB-TolC activity on antibiotic susceptibility. E. coli strains with AcrAB-TolC depletion (BW25113-ΔacrB) and overexpression (BW25113: pUCacrAB) were treated with various antibiotics, and the level of resistance was determined as minimum inhibitory concentration (MIC) relative to a wild-type strain, presented on a logarithmic scale (log2). Each bar represents the mean resistance level (susceptibility, i.e., level of resistance < 0; and resistance, i.e., level of resistance > 0) to antibiotics induced by acrAB overexpression (blue bars; E. coli with a multicopy plasmid of the acrAB genes (pUCacrAB)) and acrB deletion (red bars; mutant E. coli with acrB gene deletion (ΔacrB)) compared to the wild-type. Data are presented as mean values of 3 biological replicates ± SD. […] Detailed information on antibiotic and bacterial strain abbreviations is provided in Supplementary Data 1. Source data are provided as a Source Data file. For information on mode of action groups, refer to Table 1.
(§2) For the efflux deficiency screen, the ΔacrB mutant of E. coli K12 BW25113[86] and its equivalent wild-type control strain with intact gene were utilized. In contrast, BW25113 carrying a multicopy acrAB plasmid (pUCacrAB)[87] and its control strain harboring an empty pUC118 plasmid were used to overexpress the acrAB efflux system. According to established protocols via P1 transduction, the suitable acrB deletion mutant (ΔacrB BW25113) was created, while the pUCacrAB plasmid was kindly provided by Kunihiko Nishino and Akihito Yamaguchi (Osaka University, Osaka, Japan). In a prior study, both strains were employed. Since the copy number of the plasmid carrying the efflux pump is controlled by native promoters, external induction is unnecessary.
(§3) Antibiotic susceptibilities of these strains were evaluated using a modified version of the standard broth dilution method. In 96-well microtiter plates containing fresh MHB medium, or supplemented MS medium in case of SCH79797, ten-step serial dilutions of an antibiotic from a stock solution were made (2 wells per antibiotic concentration per strain). The two wells contained only supplemented media without any antibiotics […]. Strains were incubated overnight at 37 °C with continuous agitation. Additionally, plasmid containing strains were grown in the presence of 100 µg/mL ampicillin. The culture was diluted to yield a cell suspension with 5 ×10^5 cells/mL and then inoculated into the wells of the microtiter plate. To determine the medium’s background OD value, the first column of the 96-well plate contained solely MHB without inoculum. Prior to the measurement, the plates were incubated at 37 °C with continuous shaking at 900 rpm with 3 mm throw. OD600 values were determined in a microplate reader after 18 hours of incubation (Biotek Synergy 2). The minimum inhibitory concentration (MIC) was determined as the lowest concentration of antibiotic at which the OD600 values were less than 0.05 after subtracting the background value. The log2 of the relative MIC was computed using the following equation:2 log2relativeMICpUCacrAB=MICpUCacrAB/MICpUC118 3 log2relativeMICΔacrB=MICΔacrB/MICwt

[1] = tested on: A. baumannii ATCC 17978 (SEN) and A. baumannii ATCC BAA-1605 (MDR); assay: microbe, parasite or virus in culture; assay type: cell-based, Acinetobacter baumannii; conditions: for MIC: Acinetobacter baumannii, across three biological replicates
Procedure: This study focused on multiple bacterial strains, as follows. For the FoR and ALE experiments, 2 strains per species were chosen: E. coli ATCC 25922, K. pneumoniae ATCC 10031, A. baumannii ATCC 17978, and P. aeruginosa ATCC BAA-3107 as sensitive (SEN) strains, and E. coli NCTC13846, K. pneumoniae ATCC 700603, A. baumannii ATCC BAA-1605 and P. aeruginosa LESB58 as multi-drug resistant (MDR) strains. Functional metagenomic screens were performed with E. coli ATCC 25922 and K. pneumoniae ATCC 10031 strains. To determine the dose-kill properties of the different antibiotics, an E. coli strain (ATCC 25922) expressing a yellow fluorescent protein (pZS2R, YFP, CHL^R) and a red fluorescent protein (pZS2R, mCherry, CHL^R) was used.
Unless otherwise indicated, cation-adjusted Mueller-Hinton Broth 2 (MHB, Millipore) medium was used throughout the study, except for SCH79797 (SCH).
A robotic liquid handling system was used to automatically prepare a 11 to 16-step serial dilution in 384-well microtiter plates (Greiner). A final concentration of 5 × 10^5 bacterial cells per mL were inoculated into each well containing 60 µL MHB medium. Bacterial cultures were incubated at 37 °C with continuous shaking (Infors shaker, 900 rpm with 3 mm throw) for 18 hours (2 replicates from each). Cell growth was monitored by measuring the optical density (OD600 values, using Biotek Synergy microplate reader). MIC was defined as the antibiotic concentration of complete growth inhibition (i.e., OD600 < 0.05). Relative MIC was calculated as follows:1 relativeMIC=MICevolved/MICancestor

[2] = tested on: E. coli BW25113: pUCacrAB; assay: AcrAB-TolC efflux overexpression screen, relative MIC; assay type: cell-based, Escherichia coli; conditions: pUCacrAB vs empty pUC118 control
Procedure: as §1, §2, §3

[3] = Acinetobacter baumannii ATCC 17978 (AB-SEN), ancestor strain, sheet fig 2a
[4] = Acinetobacter baumannii ATCC 17978 (AB-SEN)
[5] = Acinetobacter baumannii ATCC BAA-1605 (AB-MDR)

| SMILES | Relative MIC (log2) (E. coli BW25113-ΔacrB; replicate 1) | Relative MIC (log2) (E. coli BW25113-ΔacrB; replicate 2) | Relative MIC (log2) (E. coli BW25113-ΔacrB; replicate 3) | MIC of ancestor ([1]; AB-SEN, Acinetobacter baumannii ATCC 17978, ancestor strain) | MIC of ancestor [1, 3] | MIC [1, 4] | MIC [1, 5] | Relative MIC (log2) ([2]; replicate 1) | Relative MIC (log2) ([2]; replicate 2) | Relative MIC (log2) ([2]; replicate 3) | MIC of ancestor ([1]; Acinetobacter baumannii ATCC 17978 (AB-SEN), ancestor strain) | MIC of ancestor ([1]; Acinetobacter baumannii ATCC BAA 1605 (AB-MDR), ancestor strain) | MIC of ancestor ([1]; Acinetobacter baumannii ATCC BAA 1605 (AB-MDR), ancestor strain, sheet fig 2a) |
| --- | --- | --- | --- | --- | --- | --- | --- | --- | --- | --- | --- | --- | --- |
| O=c1ccc2ncc(=O)n3c2n1C[C@H]3CN1CCC(NCc2cc3c(cn2)OCCC3)CC1 [Gepotidacin] | -4 | -4 | -4 | 2 µg/mL | 2 µg/mL | 2 µg/mL | 32 µg/mL | 2 | 2 | 2 |  |  |  |
| CN(C)[C@@H]1C(O)=C(C(N)=O)C(=O)[C@@]2(O)C(O)=C3C(=O)c4c(O)c(NC(=O)CN5CCCC5)cc(F)c4C[C@H]3C[C@@H]12 [Eravacycline] | -2.34 | -2.34 | -2.34 |  | 0.0625 µg/mL | 0.0625 µg/mL | 2 µg/mL | 0 | 0 | 0 | 0.0625 µg/mL | 2 µg/mL | 2 µg/mL |
